Like-named read-outs stand apart in the source and are kept apart here.
What was measured:
[1] = system: K. pneumoniae expressing the Class A carbapenemase KPC-2; test: microbe, parasite or virus in culture; conditions: for MIC of example compound, K. pneumoniae KPC-2 + 8 μg/mL CAZ: in the presence of fixed 8 μg/mL Ceftazidime
[2] = system: E. cloacae expressing the Class C P99+ AmpC; test: microbe, parasite or virus in culture; type: cell-based; conditions: for MIC of example compound, E. cloacae P99 AmpC + 8 μg/mL CAZ: in the presence of fixed 8 μg/mL Ceftazidime
Procedure, shortened: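 Broth microdilution potentiation assay in cation-adjusted Mueller Hinton broth: compound was titrated 8 to 0.015 μg/mL final against a fixed 8 μg/ml cephalosporin. Strains were pre-grown 3-5 h with 50 μg/mL ampicillin and inoculated per CLSI. MIC was read visually after 16-20 h at 37° C.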

[3] = system: E. coli expressing the Class A ESBL SHV-5; test: microbe, parasite or virus in culture; type: cell-based; conditions: for MIC of example compound, E. coli SHV-5 + 8 μg/mL CAZ: in the presence of fixed 8 μg/mL Ceftazidime
[4] = system: K. pneumoniae expressing the Class A ESBL CTX-M-15; test: microbe, parasite or virus in culture; type: cell-based; conditions: for MIC of example compound, K. pneumoniae CTX-M-15 + 8 μg/mL CAZ: in the presence of fixed 8 μg/mL Ceftazidime
[5] = target: T1, Class A ESBL SHV-5 (Klebsiella pneumoniae, UniProt P0A3M1); type: biochemical, E. coli; conditions: nitrocefin 100 μM, PBS pH 7.0, read-out: SHV-5 IC50 Range
T1 construct: made in house; host or cells: E. coli BL21(DE3) for purified enzyme; E. coli cells containing SHV-5 for extracts
T1 sequence (P0A3M1 22-286): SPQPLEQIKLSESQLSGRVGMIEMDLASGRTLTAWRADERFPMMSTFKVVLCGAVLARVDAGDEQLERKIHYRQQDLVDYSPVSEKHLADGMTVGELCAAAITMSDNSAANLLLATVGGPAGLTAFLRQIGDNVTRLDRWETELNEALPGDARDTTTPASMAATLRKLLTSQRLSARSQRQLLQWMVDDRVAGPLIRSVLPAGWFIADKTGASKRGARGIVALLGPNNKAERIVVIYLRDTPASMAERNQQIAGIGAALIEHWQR

[6] = target: T2, Class A ESBL CTXM-15 (Escherichia coli, UniProt Q9EXV5); test: β-lactamase enzyme inhibition (nitrocefin hydrolysis), CTXM-15; type: biochemical; conditions: purified enzyme; nitrocefin 100 μM, PBS pH 7.0; read-out: CTXM-15 IC50 Range
T2 construct: made in house; host or cells: E. coli BL21(DE3)
T2 sequence (Q9EXV5 entry or part of it): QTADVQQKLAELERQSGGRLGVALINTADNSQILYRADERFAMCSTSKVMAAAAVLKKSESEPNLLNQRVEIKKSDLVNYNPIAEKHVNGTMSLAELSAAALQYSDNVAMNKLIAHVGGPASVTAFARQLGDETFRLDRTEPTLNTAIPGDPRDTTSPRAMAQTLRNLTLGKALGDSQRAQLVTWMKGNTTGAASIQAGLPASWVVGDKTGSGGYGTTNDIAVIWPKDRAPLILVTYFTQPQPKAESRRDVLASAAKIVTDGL
Procedure, shortened: (§1)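 Native untagged enzymes were expressed in E. coli BL21(DE3) and purified by cation exchange and gel filtration. Compound series (100–0.005 μM in PBS pH 7.0, before addition of an equal enzyme volume) were preincubated with enzyme 10 min at 37°C. Nitrocefin (100 μM final) hydrolysis was read kinetically at 486 nm for 10 min, and IC50 was taken as 50% reduction of initial rate versus no-inhibitor wells.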

[7] = target: T3, Class C P99 AmpC (Enterobacter cloacae, UniProt P05364); type: biochemical; conditions: purified enzyme; nitrocefin 100 μM, PBS pH 7.0; read-out: P99 AmpC IC50 Range
T3 construct: made in house; host or cells: E. coli BL21(DE3)
T3 sequence (P05364 21-381): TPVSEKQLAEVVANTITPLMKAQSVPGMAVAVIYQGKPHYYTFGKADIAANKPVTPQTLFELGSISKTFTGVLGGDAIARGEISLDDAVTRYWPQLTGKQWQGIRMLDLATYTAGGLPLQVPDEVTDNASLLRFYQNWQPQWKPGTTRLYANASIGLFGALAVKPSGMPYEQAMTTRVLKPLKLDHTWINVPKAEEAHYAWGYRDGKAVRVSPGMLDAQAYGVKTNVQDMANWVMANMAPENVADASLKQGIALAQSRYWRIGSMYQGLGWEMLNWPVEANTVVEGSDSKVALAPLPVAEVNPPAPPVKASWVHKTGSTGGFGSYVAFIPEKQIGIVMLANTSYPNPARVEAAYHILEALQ
Procedure, shortened: as §1

[8] = target: T4, Class A carbapenemase KPC-2 (Klebsiella pneumoniae, UniProt Q9F663); test: β-lactamase enzyme inhibition (nitrocefin hydrolysis), KPC-2; type: biochemical; conditions: purified enzyme; nitrocefin 100 μM, PBS pH 7.0; read-out: KPC-2 IC50 Range
T4 construct: made in house; host or cells: E. coli BL21(DE3)
T4 sequence (Q9F663 25-293 limits assumed): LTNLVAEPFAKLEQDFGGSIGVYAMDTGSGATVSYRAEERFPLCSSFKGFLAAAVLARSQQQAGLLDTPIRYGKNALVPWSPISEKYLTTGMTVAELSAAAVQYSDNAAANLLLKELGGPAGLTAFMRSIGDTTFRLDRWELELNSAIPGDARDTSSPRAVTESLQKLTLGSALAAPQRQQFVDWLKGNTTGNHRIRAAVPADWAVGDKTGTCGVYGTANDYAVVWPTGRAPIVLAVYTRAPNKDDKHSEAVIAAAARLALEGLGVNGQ
Procedure, shortened: as §1

[9] = Klebsiella pneumoniae, read-out: MIC alone
[10] = cellular extracts of E. coli containing SHV-5 (Examples 2-30)
[11] = purified beta-lactamase enzyme (Examples 1 and 31-64)

Structure (SMILES)	MIC [1, 9] [µg/mL]	MIC ([2]; Enterobacter cloacae, read-out: MIC alone) [µg/mL]	MIC ([3]; Escherichia coli, read-out: MIC alone) [µg/mL]	MIC [4, 9] [µg/mL]	MIC of example compound, K. pneumoniae KPC-2 + 8 μg/mL CAZ [1]	IC50 [5, 10] [nM]	IC50 [6] [nM]	IC50 [7] [nM]	MIC of example compound, E. cloacae P99 AmpC + 8 μg/mL CAZ [2]	MIC of example compound, E. coli SHV-5 + 8 μg/mL CAZ [3]	MIC of example compound, K. pneumoniae CTX-M-15 + 8 μg/mL CAZ [4]	IC50 [8] [nM]	IC50 [5, 11] [nM]
CC(C)(O/N=C(\C(=O)N[C@@H]1C(=O)N2C(C(=O)[O-])=C(C[n+]3ccccc3)CS[C@H]12)c1csc(N)n1)C(=O)O [Ceftazidime, reference compound]	32	128	> 1020	128									
Cl.NCCOc1cccc(CC(=O)N[C@@H](Cc2cccc(C(=O)O)c2O)B(O)O)c1 [Example 4, (1R)-1-[3-(2-amino)-ethoxy-phenyl]acetylamino-1-(3-carboxy-2-hydroxy)benzyl-methylboronic acid hydrochloride]					C (C represents an MIC of <1 μg/mL)	< 10	< 10	< 10	C (C represents an MIC of <1 μg/mL)	C (C represents an MIC of <1 μg/mL)	C (C represents an MIC of <1 μg/mL)		
O=C(Cc1ccccc1)N[C@@H](Cc1cccc(C(=O)O)c1O)B(O)O [Example 10, (1R)-1-(2-phenylacetylamino)-2-(2-hydroxy-3-carboxyphenyl)ethyl-1-boronic acid]					C (C represents an MIC of <1 μg/mL)	< 10	< 10	< 10	C (C represents an MIC of <1 μg/mL)	C (C represents an MIC of <1 μg/mL)	C (C represents an MIC of <1 μg/mL)		
COc1ccc(OC)c(CC(=O)N[C@@H](Cc2cccc(C(=O)O)c2O)B(O)O)c1 [Example 17, (1R)-1-(2-(2,5-dimethoxyphenyl)-acetylamino)-2-(2-hydroxy-3-carboxyphenyl)ethyl-1-boronic acid]						< 10	< 10	< 10	C (C represents an MIC of <1 μg/mL)	A (A represents an MIC >8 μg/mL)	C (C represents an MIC of <1 μg/mL)	< 10	
CCCCC(=O)N[C@@H](Cc1cccc(C(=O)O)c1O)B(O)O [Example 23, (1R)-1-(pentanoylamino)-2-(2-hydroxy-3-carboxyphenyl)ethyl-1-boronic acid]					C (C represents an MIC of <1 μg/mL)	10 to 100	< 10	10 to 100	C (C represents an MIC of <1 μg/mL)	C (C represents an MIC of <1 μg/mL)	C (C represents an MIC of <1 μg/mL)	< 10	
O=C(N[C@@H](Cc1cccc(C(=O)O)c1O)B(O)O)c1ccc(F)cc1 [Example 26, (1R)-1-(4-Fluorobenzoylamino)-(3-carboxy-2-hydroxy)benzyl-methylboronic acid]					C (C represents an MIC of <1 μg/mL)	10 to 100	< 10	< 10	C (C represents an MIC of <1 μg/mL)		C (C represents an MIC of <1 μg/mL)	< 10	
O=C(N[C@@H](Cc1cccc(C(=O)O)c1O)B(O)O)c1ccc(O)cc1 [Example 36, (1R)-1-(4-Hydroxybenzoyl)-amino-1-(3-carboxy-2-hydroxy)benzyl-methylboronic acid]					C (C represents an MIC of <1 μg/mL)		< 10	< 10	C (C represents an MIC of <1 μg/mL)		C (C represents an MIC of <1 μg/mL)	< 10	100 to 1000
CC(=O)NCC(=O)N[C@@H](Cc1cccc(C(=O)O)c1O)B(O)O [Example 37, (1R)-1-(2-acetamidoacetylamino)-2-(2-hydroxy-3-carboxyphenyl)ethyl-1-boronic acid]					C (C represents an MIC of <1 μg/mL)		10 to 100	10 to 100	C (C represents an MIC of <1 μg/mL)		C (C represents an MIC of <1 μg/mL)	10 to 100	10 to 100
Nc1nc(CC(=O)N[C@@H](Cc2cccc(C(=O)O)c2O)B(O)O)cs1.O=CO [Example 39, (1R)-1-(2-Amino-thiazol-4-yl)-acetylamino-1-(3-carboxy-2-hydroxy)benzyl-methylboronic acid formate salt]					C (C represents an MIC of <1 μg/mL)		< 10	< 10	C (C represents an MIC of <1 μg/mL)	C (C represents an MIC of <1 μg/mL)	C (C represents an MIC of <1 μg/mL)	100 to 1000	< 10
NCC(=O)N[C@@H](Cc1cccc(C(=O)O)c1O)B(O)O.O=CO [Example 41, (1R)-1-(2-aminoacetylamino)-2-(2-hydroxy-3-carboxyphenyl)ethyl-1-boronic acid formate salt]					C (C represents an MIC of <1 μg/mL)		100 to 1000	> 1000	A (A represents an MIC >8 μg/mL)	A (A represents an MIC >8 μg/mL)	A (A represents an MIC >8 μg/mL)	10 to 100	> 1000
O=C(N[C@@H](Cc1cccc(C(=O)O)c1O)B(O)O)c1ccno1 [Example 46, (1R)-1-(isoxazole-5-carbonyl-amino)-2-(2-hydroxy-3-carboxyphenyl)ethyl-1-boronic acid]					C (C represents an MIC of <1 μg/mL)		< 10	< 10	C (C represents an MIC of <1 μg/mL)		C (C represents an MIC of <1 μg/mL)	10 to 100	< 10
CC(=O)N1CCC(C(=O)N[C@@H](Cc2cccc(C(=O)O)c2O)B(O)O)CC1 [Example 49, (1R)-1-(1-Acetyl-piperidine-4-carbonyl)-amino-1-(3-carboxy-2-hydroxy)benzyl-methylboronic acid]					C (C represents an MIC of <1 μg/mL)		10 to 100	10 to 100	C (C represents an MIC of <1 μg/mL)		C (C represents an MIC of <1 μg/mL)	< 10	100 to 1000
Cl.O=C(Cc1ccncc1)N[C@@H](Cc1cccc(C(=O)O)c1O)B(O)O [Example 52, (1R)-1-(4-Pyridylacetylamino)-2-(2-hydroxy-3-carboxyphenyl)ethyl-1-boronic acid hydrochloride]					C (C represents an MIC of <1 μg/mL)		< 10	< 10	C (C represents an MIC of <1 μg/mL)	C (C represents an MIC of <1 μg/mL)	C (C represents an MIC of <1 μg/mL)	< 10	< 10
O=C(N[C@@H](Cc1cccc(C(=O)O)c1O)B(O)O)c1cnc2ccccc2n1 [Example 54, (1R)-1-(Quinoxaline-2-carbonyl-amino)-2-(2-hydroxy-3-carboxyphenyl)ethyl-1-boronic acid]							< 10	< 10	A (A represents an MIC >8 μg/mL)	A (A represents an MIC >8 μg/mL)	A (A represents an MIC >8 μg/mL)	< 10	10 to 100
O=C(N[C@@H](Cc1cccc(C(=O)O)c1O)B(O)O)c1cn2ccsc2n1 [Example 56, (1R)-1-(Imidazo[2,1-b]thiazole-6-carbonyl-amino)-2-(2-hydroxy-3-carboxyphenyl)ethyl-1-boronic acid]							10 to 100	100 to 1000	A (A represents an MIC >8 μg/mL)	A (A represents an MIC >8 μg/mL)	A (A represents an MIC >8 μg/mL)	100 to 1000	10 to 100

From patent US20100120715A1, “BETA-LACTAMASE INHIBITORS” (priority 2007, published 2010)
